Experimental findings from patent publication US12612412B2, “Antiviral heterocyclic compounds” (Enanta Pharmaceuticals, Inc., priority 2021, dated 2026) are described below.

Where only a bound is given, the exact number is not on record here.

For experiment [1], the system named is recombinant HMPV CAN97-83 containing eGFP (MPV-GFP1). Briefly: HMPV antiviral assay Method-A (MPV-GFP1 eGFP fluorescence in Vero E6 cells). The class given is cell-based, Human metapneumovirus (HMPV). The settings on record: human metapneumovirus, Vero C1008, 120 h, read-out: HMPV EC50. Put shortly: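 Vero E6 cells in serum-free OptiMEM with 0.5 μg/mL TPCK-trypsin were infected with eGFP-expressing HMPV CAN97-83 at MOI 0.05, with 8-point twofold dilutions from 8 or 2 μM (0.5% DMSO). After 5 days at 32° C, eGFP fluorescence gave % inhibition versus infected untreated wells. EC50 came from four-parameter logistic fits.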

Experiment [2] has as its system genotype A, "Long" strain RSV. Briefly: RSV-A assay (CPE protection in Hep-2 cells, ATPlite readout). The class given is cell-based, Human respiratory syncytial virus (HRSV). The settings on record: human respiratory syncytial virus, genotype A “Long” strain RSV, MOI 0.1, CPE protection, read-out: Human RSV-A (“Long”). The method in brief: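 Hep-2, 8,000 cells/well, MOI 0.1 (PFU- or TCID50-based); 2-fold compound series, duplicates; 5 d incubation; ATPlite luminescence readout; EC50.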

Turning to `C[C@]1(C(N)=O)COc2c1cc([C@@](O)(CNC(=O)c1cc(C3CC3)c3nn(C(F)F)cc3c1)C(F)(F)F)nc2-c1ccc(F)cc1` [Example 47], the values for the EC50 in experiment [1] and in experiment [2] were under 0.5 µM and under 0.2 µM, respectively.
Turning to `C[C@]1(C(N)=O)COc2c1cc([C@@](O)(CNC(=O)c1ccc3nc(C4CC4)sc3c1)C(F)(F)F)nc2-c1ccc(F)cc1` [Example 14], the EC50 in experiment [1] is under 0.5 µM; in experiment [2], under 0.2 µM.
On the same counts, the results for `C[C@]1(C(N)=O)COc2c1cc([C@@](O)(CNC(=O)c1cc(F)c3nn(C4CC4)cc3c1)C(F)(F)F)nc2-c1ccc(F)cc1` [Example 25] are under 0.5 µM and under 0.2 µM.
On to `COc1cc(C(=O)NC[C@](O)(c2cc3c(c(-c4ccc(F)cc4)n2)OC[C@]3(C)C(N)=O)C(F)(F)F)cc2cn(C(F)F)nc12` [Example 40], for which the EC50 in experiment [1] is under 0.5 µM; in experiment [2], under 0.2 µM.
As for `COc1cc(C(=O)NC[C@](O)(c2cc3c(c(-c4ccc(F)cc4)n2)OC[C@]3(CO)C(N)=O)C(F)(F)F)cc2cc(C)c(C)nc12` [Example 167], the figures for the EC50 in experiment [1] and in experiment [2] were over 0.5 µM and under 0.2 µM, respectively.
On the same counts, the results for `COc1cc(C(=O)NC[C@](O)(c2cc3c(c(-c4ccc(F)cc4)n2)OC[C@]3(C)C(N)=O)C(F)(F)F)cc2c1OCO2` [Example 441] are over 0.5 µM and under 0.2 µM.
For `C[C@]1(C(N)=O)COc2c1cc([C@@](O)(CNC(=O)c1cc(F)c3nc(N)sc3c1)C(F)(F)F)nc2-c1ccc(Cl)c(F)c1` [Example 305], in that order: under 0.5 µM and under 0.2 µM.
On the same counts, the results for `C[C@]1(C(N)=O)COc2c1cc([C@@](O)(CNC(=O)c1cc(NC(=O)NC3CC3)c3ncc(Cl)cc3c1)C(F)(F)F)nc2-c1ccc(F)c(Cl)c1` [Example 220] are over 0.5 µM and under 0.2 µM.
As to `Cc1cnc2c(NC(N)=O)cc(C(=O)NC[C@](O)(c3cc4c(c(-c5ccc(F)cc5)n3)OC[C@]4(C)C(N)=O)C(F)(F)F)cc2c1` [Example 223], the EC50 in experiment [1] was over 0.5 µM; in experiment [2] it was under 0.2 µM.
